T1: CaMet15NHp (Candida albicans, UniProt Q59US5)
T1 construct: gene MET15; mostly homotetramer
T1 sequence (Q59US5 2-440): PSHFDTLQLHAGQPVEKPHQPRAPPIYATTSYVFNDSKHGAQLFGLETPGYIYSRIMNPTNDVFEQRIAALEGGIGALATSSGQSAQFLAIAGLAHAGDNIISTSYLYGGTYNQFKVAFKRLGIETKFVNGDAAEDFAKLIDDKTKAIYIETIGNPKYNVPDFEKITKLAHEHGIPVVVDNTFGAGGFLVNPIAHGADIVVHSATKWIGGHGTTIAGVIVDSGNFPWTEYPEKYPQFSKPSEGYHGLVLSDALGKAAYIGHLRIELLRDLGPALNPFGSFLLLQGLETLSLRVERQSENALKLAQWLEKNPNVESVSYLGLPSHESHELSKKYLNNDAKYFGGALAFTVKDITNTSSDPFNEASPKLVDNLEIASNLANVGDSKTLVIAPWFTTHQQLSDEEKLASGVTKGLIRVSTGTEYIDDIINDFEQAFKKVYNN

B1: CaMet15NHp (Candida albicans SC5314) (protein)
chain: PSHFDTLQLHAGQPVEKPHQPRAPPIYATTSYVFNDSKHGAQLFGLETPGYIYSRIMNPTNDVFEQRIAALEGGIGALATSSGQSAQFLAIAGLAHAGDNIISTSYLYGGTYNQFKVAFKRLGIETKFVNGDAAEDFAKLIDDKTKAIYIETIGNPKYNVPDFEKITKLAHEHGIPVVVDNTFGAGGFLVNPIAHGADIVVHSATKWIGGHGTTIAGVIVDSGNFPWTEYPEKYPQFSKPSEGYHGLVLSDALGKAAYIGHLRIELLRDLGPALNPFGSFLLLQGLETLSLRVERQSENALKLAQWLEKNPNVESVSYLGLPSHESHELSKKYLNNDAKYFGGALAFTVKDITNTSSDPFNEASPKLVDNLEIASNLANVGDSKTLVIAPWFTTHQQLSDEEKLASGVTKGLIRVSTGTEYIDDIINDFEQAFKKVYNN

Tests used:
[1] = molecular target: T1, CaMet15NHp; experiment: RP-HPLC-DAD of L-homocysteine derivatized with DTNB; assay type: biochemical; settings: substrates OAH and Na2S, 0.2 mM PLP, pH 8.0, 37 °C; racemate
[2] = molecular target: T1, CaMet15NHp; experiment: as above; assay type: biochemical; settings: read-out: % inhibition at 10 mM
[3] = test system: S; experiment: purified protein; settings: O-acetyl-L-homoserine co-substrate, 0.2 mM PLP, 50 mM Tris-HCl pH 8.0, 100 mM NaCl, 37 °C, sulfide ion donor
[4] = substrate: CC(=O)OCC[C@H](N)C(=O)O; experiment: purified protein; settings: Na2S co-substrate, 0.2 mM PLP, 50 mM Tris-HCl pH 8.0, 100 mM NaCl, 37 °C

Row | Molecule | inhibition at 10000 µM [2] [%] | other results
1 | CP(=O)(O)CCC(N)C(=O)O (racemic) [DL-GLUF, DL-glufosinate] |  | % inhibition at 10 mM [1]: DL-2-allyglycine (DL-ALG), and DL-glufosinate (DL-GLUF) were slightly inhibitory
2 | CSCC[C@H](N)C(=O)O [L-Met, L-methionine] | < 15 | 
3 | N[C@@H](CCNC(=O)c1ccccc1)C(=O)O [BzDAB, 3-benzamido-1-carboxypropan-1-aminium chloride] | ~44 | 
4 | CC(C)(S)[C@H](N)C(=O)O [L-PEN, L-penicillamine] | > 50 | 
5 | C=CCC(N)C(=O)O (racemic) [DL-ALG, DL-2-allylglycine] |  | % inhibition at 10 mM [1]: DL-2-allyglycine (DL-ALG), and DL-glufosinate (DL-GLUF) were slightly inhibitory
6 | CaMet15NHp (Candida albicans SC5314) |  | Km [3]: 0.027 ± 0.0021 mM
7 | CC(=O)NCC[C@H](N)C(=O)O [AcDAB, N[4]-acetyl-(S)−2,4-diaminobutanoic acid] | ~70 | 
8 | B1 |  | Km [4]: 9.12 ± 1.77 mM

Source: PMC11568248, “Targeting Candida albicans O-acetyl-L-homoserine sulfhydrylase (Met15p) in antifungal treatment” (Scientific Reports, 2024)
